Experimental data published in patent US20200306283A1, “CANCER TREATMENT AND METASTASIS INHIBITION USING AN ANTI-CANCER STEM CELL AGENT IN COMBINATION WITH A NEU1 SIALIDASE INHIBITOR OR A CYTOKINE INHIBITOR AFTER PRIMARY CANCER TREATMENT” (priority 2016, published 2020).

How the values were obtained:
[1] = system: Panc1, Panc1-gemr, Panc1-cisr and Panc1-gemr/cisr cells; test: Immunocytochemistry of E-, N- and VE-cadherin on Panc1 and chemoresistant Panc1 cells after Tamiflu (FIG. 25); format: cell-based, human; conditions: Tamiflu 600 μg/mL for 24 hours, Panc1 and drug resistant lines
Procedure: Turning to FIG. 25, oseltamivir phosphate by itself was able to reverse a partial EMT in human PANC1 cancer cell lines, including drug resistant cancer cell lines as evidenced by an upregulation in the epithelial marker E-cadherin and a downregulation in the mesenchymal marker N-cadherin. Expression of e-cadherin, n-cadherin, and Ve-cadherin on the surface of Pancl, Pancl-gemr, Pancl-cisr, and Pancl-gemr/cisr cells were determined following treatment with Tamiflu® 600 μg/mL for 24 hours. Immunocytochemistry was performed on fixed, nonpermeabilized cells. The indicated primary antibodies for Ecadherin, N-cadherin, and Ve-cadherin were used, followed by alexa Fluor® 594 (life Technologies inc, Burlington, ON, Canada) secondary antibody for the primary antibody against n-cadherin and Dylight™ 488 (santa cruz Biotechnology, inc, santa cruz, ca, Usa) secondary antibody for primary antibodies against e-cadherin and Ve-cadherin. The background controls had no primary antibody during the staining procedure. The stained cells were visualized after 24 hours using a Zeiss M2 Imager fluorescence microscope (Carl Zeiss ag, Oberkochen, germany) at 400× magnification. Images are representative of at least four fields of view in three separate trials. Quantitative analysis was done by assessing the density of cell staining corrected for background in each panel using corel Photo Paint 8.0 software (Corel Corporation, Ottawa, ON, Canada). each bar in the figures represents the mean (±standard error of the mean) corrected density of culture cell staining for equal cell density (5×10^5 cells) within the respective images. P-values represent significant differences at 95% confidence using Dunnett's multiple comparison test compared with untreated control group. (Abbreviations: 1° ab=primary antibody; Pancl-gemr=Pancl cells with established chemoresistance to 0.01 μM gemcitabine; Pancl-gemr/cisr=Pancl cells with established chemoresistance to a combination of 0.01 μM gemcitabine and 80 μM cisplatin; cad=cadherin; Bkg=background; se=standard error.)

[2] = system: enriched circulating tumour cells from a patient with metastatic prostate cancer; test: Cell proliferation / cancer stem cell markers (EpCAM, CD44, CD133) in enriched CTCs cultured with cytokine cocktails; format: cell-based, human; conditions: for EpCAM + CD133+ cell subpopulation / EpCAM + CD133− cell subpopulation / EpCAM − CD133+ cell subpopulation / EpCAM − CD133− cell subpopulation: CD133 PE antibody cocktail; for EpCAM + CD44+ cell subpopulation / EpCAM + CD44− cell subpopulation / EpCAM − CD44+ cell subpopulation / EpCAM − CD44− cell subpopulation: cell culture period 8 days
Procedure: (§1) Cells were fixed in 1% Paraformaldehyde for 15 minutes at room temperature and run on Flowsight using 2 lasers (488 nm at 60 mW and 405 nm at 30 mW). For cell lines, 100,000 events were collected whilst for enriched CTCs all events were collected until the sample finished.
(§2) Flow cytometry data was analysed using IDEAS software. Double events, out of focus events, CD45PercPCy5.5 positive cells (in case of enriched CTCs), dead cells and non-nucleated events were eliminated from the fluorescence analysis of the cell population. FIG. 2 depicts scatterplots of flow cytometry experiments showing the enriched CTCs stained with an antibody containing CD44 after treatment with various cytokines and cytokine cocktails.
In order to determine if selected cytokines influence cell proliferation of circulating tumour cells (CTCs), whole blood was collected from a patient with metastatic prostate cancer. Circulating tumour cells were enriched from whole blood using RosetteSep CTC Enrichment cocktail. Briefly, samples of whole blood were incubated with RosetteSep (anti CD 56 for 20 minutes at room temperature). Phosphate buffered saline containing 2% Fetal Bovine Serum was added to the samples and layered on a Ficoll Paque gradient. After centrifugation, the supernatant which contained CTCs was washed twice with PBS containing 2% FBS. Equal volumes of the cell suspension were seeded into a 24-well ultra-low attachment polystyrene plate. […] FIG. 3 depicts scatterplots of flow cytometry experiments enriched CTCs stained with an antibody containing CD133 after treatment with various cytokines and cytokine cocktails.
FIG. 6 depicts cell proliferation of subpopulations in cultured CTCs after exposure to various cytokines and cytokine cocktails. Cells were stained using an antibody containing CD44 PE.
Cells were stained using an antibody containing CD133 PE.

HCT-15 cells = test: Cell subpopulations (CD44/CD24) in HCT-15 cell line after cytokine exposure, imaging flow cytometry; format: cell-based; parameters: unit not given here; conditions: HCT-15 cells after exposure to cytokines singly or in pairs
Procedure: Two authenticated colorectal carcinoma cell lines, HCT-15 and SW-620, were used to test the effect of different cytokine and cytokine cocktails, including IL-6, HGF, PGE-2, TGF-beta and MMP-9 alone or in a cocktail, on cell proliferation, EMT and cancer stem cell populations.
In order to evaluate stem cell populations, cells were synchronized by serum starvation for 72 hours before seeding in 24-well ultra low attachment plates at a density of 200,000 cells/well. Cells were then detached using trypsin EDTA and washed twice with PBS (without Calcium or Magnesium). A cell proliferation dye, eFluor 450 was used to label cells. Cells were grown with DMEM with high glucose and 2 mM Gluatmine without FBS in the presence of selected cytokines and or cytokine cocktails over a period of 72 hrs.
Cells that were grown in 5% serum were stained with the following antibody cocktails: CD24FITC, CD44PE and CD24FITC, CD133PE. Cells were also stained with a fixable live/dead efluor dye 506 to exclude dead cells. In parallel, cells were grown in the presence of 5% serum to evaluate CSC markers.
as §1
as §2, with “cocktails. Hoescht 33258 dye was used to stain nuclei in the case of the HCT-15 cell line and enriched CTCs. All experiments were stained with a fixable live/dead dye eFluor 506 to exclude dead cells.” for “cocktails.”
To evaluate which cocktail combinations were most likely involved in cell proliferation of presumed quiescent stem cells or de-differentiated stem cell-like cells, four cytokines, IL-6, HGF, PGE-2 and TGF-beta were added singly or in pairs to HCT-15 cells. Results of combinations that influenced cell proliferation of HCT-15 cells in culture are presented. […] FIG. 4 depicts cell proliferation of subpopulations in the HCT-15 cell line after exposure to various cytokines and cytokine cocktails.

SW-620 cells = SW-620 cells treated with cytokines with or without Irinotecan, flow cytometry for stem cell markers and apoptosis; format: cell-based, human; conditions: SW-620, cytokines 24 hours then 2 μM Irinotecan 36 hours; zero in non-treated control cells
Procedure: SW-620 cells, a human colorectal adenocarcinoma cell line, were treated with cytokines alone or in combination including IL-6, TGF-beta, HGF, PGE-2, IL-6+PGE-2 and TGF-beta+HGF for 24 hours and compared to untreated SW-620 cells as control. Some treated and untreated SW-620 cells were then exposed to 2 μM Irinotecan for 36 hours at which point cells were harvested for flow cytometry to assess for stem cell markers and markers of apoptosis. The percentage of CD44+CD133− cells following treatment with various cytokine and cytokine cocktails is depicted in FIG. 10. Compared to non-cytokine treated cells, combinations with IL-6+PGE-2, and TGF-beta+HGF increased the number and percentage of cells that were CD44+CD133− as shown in FIG. 10 (stem cells). FIG. 11 depicts the percentage of CD44+CD133− cells following treatment with various cytokines and Irinotecan. […]
Additionally, the percentage of CD44-CD133+ cells following treatment with various cytokines and cytokines cocktails was determined as depicted in FIG. 16. The percentage of CD44-CD133+ cells following treatment with various cytokines and Irinotecan was measured as depicted in FIG. 17. The percentage of CD44-CD133+ cells following treatment with various cytokine cocktails and Irinotecan was measured as depicted in FIG. 18. […]

[3] = system: enriched circulating tumour cells from a patient with colorectal cancer; test: Cultured enriched CTCs from a colorectal cancer patient treated with IL-6, IL-8 or PDGFBB (EpCAM, CD133, Lgr5 flow cytometry); format: cell-based, human; conditions: cultured CTCs from colorectal cancer patient
Description: A blood sample was collected from a patient with colorectal cancer six days after surgery. Blood samples were enriched for CTCs using RosetteSep CD 56 kit according to standard protocol. Prior to cell culture, cells were stained with the following antibody cocktail: EpCAM A488, CD133PE, CD 45 PerCP Cy5.5, and Lgr5-PE-Vio770. Cells were either cultured in low attachment well plates without cytokines (control cells) or with three different cytokines (IL-6, IL-8 or PDGFBB).
Flow cytometry data was analysed using IDEAS software. Double events, out of focus events, CD45PercPCy5.5 positive cells, dead cells and non-nucleated events were eliminated from the fluorescence analysis of the cell population. Hoescht 33258 dye was used to stain nuclei of enriched CTCs. All experiments were stained with a fixable live/dead dye eFluor 506 to exclude dead cells.

[4] = listed as Oseltamivir Phosphate

CCOC(=O)C1=C[C@@H](OC(CC)CC)[C@H](NC(C)=O)[C@@H](N)C1 [oseltamivir phosphate]
E-cadherin expression on cell surface [1]: upregulation | N-cadherin expression on cell surface [1]: downregulation | VE-cadherin expression on cell surface [1]: significant downregulation | E-cadherin expression on cell surface [1, 4]: statistically significant upregulation in the epithelial marker E-Cadherin in all 4 cell lines tested with the exception of the double resistant pancreatic cell line | N-cadherin expression on cell surface [1, 4]: Downregulation of N cadherin was seen in all cell lines tested

HGF: Hepatocyte Growth Factor added to cancer cells in culture
EpCAM + CD133+ cell subpopulation [2]: 17.2 percentages of gated subpopulations | EpCAM + CD133− cell subpopulation [2]: 0.2 percentages of gated subpopulations | EpCAM − CD133+ cell subpopulation [2]: 80.8 percentages of gated subpopulations | EpCAM − CD133− cell subpopulation [2]: 1.58 percentages of gated subpopulations | EpCAM + CD44+ cell subpopulation ([2]; CD44PE antibody cocktail): 16.8 percentage of gated cells | EpCAM + CD44− cell subpopulation ([2]; CD44PE antibody cocktail): 4.89 percentage of gated cells | EpCAM − CD44+ cell subpopulation ([2]; CD44PE antibody cocktail): 2.12 percentage of gated cells | EpCAM − CD44− cell subpopulation ([2]; CD44PE antibody cocktail): 74.9 percentage of gated cells | CD24 + CD44− cell subpopulation (HCT-15 cells): 58.6 | CD44 + CD24+ cell subpopulation (HCT-15 cells): 3.29 | CD44 + CD24− cell subpopulation (HCT-15 cells): 0.31 | CD44 − CD24− cell subpopulation (HCT-15 cells): 35.9

CCCCC[C@H](O)/C=C/[C@H]1[C@H](O)CC(=O)[C@@H]1C/C=C\CCCC(=O)O [PGE-2, prostaglandin E2, reference compound]
EpCAM-CD44+ cell sub-population ([2]; 8 days culture, no serum, CD44PE antibody cocktail): 4.23 % gated | EpCAM + CD133+ cell subpopulation [2]: 10.4 percentages of gated subpopulations | EpCAM + CD133− cell subpopulation [2]: 0 percentages of gated subpopulations | EpCAM − CD133+ cell subpopulation [2]: 86.7 percentages of gated subpopulations | EpCAM − CD133− cell subpopulation [2]: 2.61 percentages of gated subpopulations | EpCAM + CD44+ cell subpopulation ([2]; CD44PE antibody cocktail): 27.2 percentage of gated cells | EpCAM + CD44− cell subpopulation ([2]; CD44PE antibody cocktail): 1.75 percentage of gated cells | EpCAM − CD44+ cell subpopulation ([2]; CD44PE antibody cocktail): 4.23 percentage of gated cells | EpCAM − CD44− cell subpopulation ([2]; CD44PE antibody cocktail): 65.5 percentage of gated cells | CD24 + CD44− cell subpopulation (HCT-15 cells): 58.7 | CD44 + CD24+ cell subpopulation (HCT-15 cells): 7.3 | CD44 + CD24− cell subpopulation (HCT-15 cells): 0.61 | CD44 − CD24− cell subpopulation (HCT-15 cells): 32.4 | percentage of CD44+CD133− stem cells (SW-620 cells): enriched

Il-8
EpCAM + CD133+ cell subpopulation [3]: 0.13 percentages of gated subpopulations | EpCAM + CD133− cell subpopulation [3]: 2.51 percentages of gated subpopulations | EpCAM − CD133+ cell subpopulation [3]: 0.09 percentages of gated subpopulations | EpCAM − CD133− cell subpopulation [3]: 90.8 percentages of gated subpopulations
